Experimental data from PubChem BioAssay AID1963866 (Molecular Pharmacology Branch, DTP, NCI, 2024).

Tested on: PDC KRAS tumor spheroids with HUVEC/MSC, viability
Assay: Anticancer human tumor 349418-098-R-PDC patient-derived lung adenocarcinoma cell line growth inhibition [KRAS2]
Settings: for IC50: curve of first compound; for viability, T/C: stronger effect = lower value
Outline: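 KRAS-mutant tumor cells were grown as spheroids with HUVEC endothelial cells and human MSCs as stroma. Targeted agents were tested alone and with KRAS pathway inhibitors. Doses started at or near clinical Cmax, or 10 microM, descending half-log.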

[1] = second compound 0.1 µM, first compound 0.01 µM
[2] = second compound 0.1 µM, first compound 0.0316 µM
[3] = second compound 0.1 µM, first compound 0.1 µM
[4] = second compound 0.1 µM, first compound 0.316 µM
[5] = second compound 0.1 µM, first compound 1 µM
[6] = second compound 0.1 µM, first compound 3.16 µM
[7] = second compound 0.316 µM, first compound 0.01 µM
[8] = second compound 0.316 µM, first compound 0.0316 µM
[9] = second compound 0.316 µM, first compound 0.1 µM
[10] = second compound 0.316 µM, first compound 0.316 µM
[11] = second compound 0.316 µM, first compound 1 µM
[12] = second compound 0.316 µM, first compound 3.16 µM
[13] = second compound 1 µM, first compound 0.01 µM
[14] = second compound 1 µM, first compound 0.0316 µM
[15] = second compound 1 µM, first compound 0.1 µM
[16] = second compound 1 µM, first compound 0.316 µM
[17] = second compound 1 µM, first compound 1 µM
[18] = second compound 1 µM, first compound 3.16 µM
[19] = second compound 3.16 µM, first compound 0.01 µM
[20] = second compound 3.16 µM, first compound 0.0316 µM
[21] = second compound 3.16 µM, first compound 0.1 µM
[22] = second compound 3.16 µM, first compound 0.316 µM
[23] = second compound 3.16 µM, first compound 1 µM
[24] = second compound 3.16 µM, first compound 3.16 µM
[25] = second compound 10 µM, first compound 0.01 µM
[26] = second compound 10 µM, first compound 0.0316 µM
[27] = second compound 10 µM, first compound 0.1 µM
[28] = second compound 10 µM, first compound 0.316 µM
[29] = second compound 10 µM, first compound 1 µM
[30] = second compound 10 µM, first compound 3.16 µM
[31] = second compound 0.1 µM, first compound 10 µM
[32] = second compound 0.316 µM, first compound 10 µM
[33] = second compound 1 µM, first compound 10 µM
[34] = second compound 3.16 µM, first compound 10 µM
[35] = second compound 10 µM, first compound 10 µM
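Note: spheroids exposed to compounds for seven days before readout.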

Compound	IC50 (second compound 0.1 µM) [nM]	IC50 (second compound 0.316 µM) [nM]	IC50 (second compound 1 µM) [nM]	IC50 (second compound 3.16 µM) [nM]	IC50 (second compound 10 µM) [nM]	viability, T/C [2] [%]	viability, T/C [3] [%]	viability, T/C [4] [%]	viability, T/C [5] [%]	viability, T/C [6] [%]	viability, T/C [8] [%]	viability, T/C [9] [%]	viability, T/C [10] [%]	viability, T/C [11] [%]	viability, T/C [14] [%]	viability, T/C [15] [%]	viability, T/C [20] [%]	viability, T/C [21] [%]	viability, T/C [26] [%]	viability, T/C [27] [%]	also measured
CC1COCCN1c1cc(-c2ccnn2C)c2ccnc(-c3ccn[nH]3)c2n1 (stereo not given) + CNCc1ccccc1-c1csc(C(C)Nc2nc(C)nc3cc(OC)c(OC)cc23)c1	25	29.9	18.5	< 10	< 10	33.4	10.6	7.11	5.04	3.83	47.1	11.1	5.41	4.13	13.4	3.84	0.21	0.12	0.07	0.07	viability, T/C [1]: 114%; viability, T/C [7]: 107%; viability, T/C [12]: 3.71%; viability, T/C [13]: 92.1%; viability, T/C [16]: 4.41%; viability, T/C [17]: 3.23%; viability, T/C [18]: 2.84%; viability, T/C [19]: 0.09%; viability, T/C [22]: 0.03%; viability, T/C [23]: 0.04%; viability, T/C [24]: 0.13%; viability, T/C [25]: 0.08%; viability, T/C [28]: 0.07%; viability, T/C [29]: 0.08%; viability, T/C [30]: 0.13%
CC1OCC2(CCN(c3cnc(Sc4ccnc(N)c4Cl)c(N)n3)CC2)C1N (stereo not given) + CNCc1ccccc1-c1csc(C(C)Nc2nc(C)nc3cc(OC)c(OC)cc23)c1	> 10000	> 10000	< 31.6	< 31.6	< 31.6	84.7	98.9	65	103	111	103	91.1	109	88.2	42.8	35.4	0.05	0.07	0.06	0.07	viability, T/C [31]: 88.3%; viability, T/C [12]: 88.4%; viability, T/C [32]: 72.9%; viability, T/C [16]: 34%; viability, T/C [17]: 46.8%; viability, T/C [18]: 50.6%; viability, T/C [33]: 16.5%; viability, T/C [22]: 0.06%; viability, T/C [23]: 0.41%; viability, T/C [24]: 0.12%; viability, T/C [34]: 0.17%; viability, T/C [28]: 0.06%; viability, T/C [29]: 0.35%; viability, T/C [30]: 0.07%; viability, T/C [35]: 0.12%
Cn1nccc1Nc1nccc(-c2cc3c(s2)C(C)(C)N(CCN2CCOCC2)C3=O)n1 + CNCc1ccccc1-c1csc(C(C)Nc2nc(C)nc3cc(OC)c(OC)cc23)c1	37.8	< 31.6	< 31.6	< 31.6	< 31.6	54.8	25.9	12.2	8.63	5.95	48.3	21.5	10.3	6.91	28.4	8.49	0.04	0.3	0.19	0.25	viability, T/C [31]: 4.72%; viability, T/C [12]: 6.22%; viability, T/C [32]: 3.95%; viability, T/C [16]: 3.82%; viability, T/C [17]: 2.34%; viability, T/C [18]: 1.92%; viability, T/C [33]: 1.22%; viability, T/C [22]: 0.06%; viability, T/C [23]: 0.07%; viability, T/C [24]: 0.05%; viability, T/C [34]: 0.1%; viability, T/C [28]: 0.07%; viability, T/C [29]: 0.08%; viability, T/C [30]: 0.23%; viability, T/C [35]: 0.13%
CC(=O)OC12COC1CC(O)C1(C)C(=O)C(O)C3=C(C)C(OC(=O)C(O)C(NC(=O)OC(C)(C)C)c4ccccc4)CC(O)(C(OC(=O)c4ccccc4)C21)C3(C)C (stereo not given) + COc1cc2nc(C)nc(NC(C)c3cc(N)cc(C(F)(F)F)c3)c2cc1OC1CCOC1	< 10	< 10	< 10	< 10	< 10	25.7	24	33.4	27.4	38.3	27.1	25.8	23.7	28.6	31.1	27.4	21.3	21.7	23.3	25.4	viability, T/C [1]: 22%; viability, T/C [7]: 20.7%; viability, T/C [12]: 34.5%; viability, T/C [13]: 22.8%; viability, T/C [16]: 33.7%; viability, T/C [17]: 27.8%; viability, T/C [18]: 29.6%; viability, T/C [19]: 18.3%; viability, T/C [22]: 26.3%; viability, T/C [23]: 28.3%; viability, T/C [24]: 22.1%; viability, T/C [25]: 20.1%; viability, T/C [28]: 20.4%; viability, T/C [29]: 23.2%; viability, T/C [30]: 26.2%
CN(C)C/C=C/C(=O)Nc1cc2c(Nc3ccc(F)c(Cl)c3)ncnc2cc1O[C@H]1CCOC1 + COc1cc2nc(C)nc(NC(C)c3cc(N)cc(C(F)(F)F)c3)c2cc1OC1CCOC1	> 100	> 100	> 100	> 100	> 100	93.8	92.8				87.5	88.2			90.8	91.9	67.6	75.1	73.4	62.8	viability, T/C (second compound 0.1 µM, first compound 0.000316 µM): 97.6%; viability, T/C (second compound 0.1 µM, first compound 0.001 µM): 104%; viability, T/C (second compound 0.1 µM, first compound 0.00316 µM): 88.8%; viability, T/C [1]: 95.3%; viability, T/C (second compound 0.316 µM, first compound 0.000316 µM): 87.2%; viability, T/C (second compound 0.316 µM, first compound 0.001 µM): 102%; viability, T/C (second compound 0.316 µM, first compound 0.00316 µM): 92.2%; viability, T/C [7]: 102%; viability, T/C (second compound 1 µM, first compound 0.000316 µM): 91.5%; viability, T/C (second compound 1 µM, first compound 0.001 µM): 97.4%; viability, T/C (second compound 1 µM, first compound 0.00316 µM): 101%; viability, T/C [13]: 92.8%; viability, T/C (second compound 3.16 µM, first compound 0.000316 µM): 74.7%; viability, T/C (second compound 3.16 µM, first compound 0.001 µM): 78.2%; viability, T/C (second compound 3.16 µM, first compound 0.00316 µM): 70.3%; viability, T/C [19]: 77.7%; viability, T/C (second compound 10 µM, first compound 0.000316 µM): 74%; viability, T/C (second compound 10 µM, first compound 0.001 µM): 69.7%; viability, T/C (second compound 10 µM, first compound 0.00316 µM): 73.2%; viability, T/C [25]: 78.8%
O=C(c1cc(Cc2n[nH]c(=O)c3ccccc23)ccc1F)N1CCN(C(=O)C2CC2)CC1 + COc1cc2nc(C)nc(NC(C)c3cc(N)cc(C(F)(F)F)c3)c2cc1OC1CCOC1	5370	4260	4960	1940	87.3	89.4	96	85.9	85.6	64.8	92.7	94.8	77.5	87.6	110	105	93.2	76.6	89.9	36.1	viability, T/C [31]: 32.3%; viability, T/C [12]: 57.8%; viability, T/C [32]: 27.5%; viability, T/C [16]: 75.8%; viability, T/C [17]: 93.8%; viability, T/C [18]: 61.5%; viability, T/C [33]: 30.2%; viability, T/C [22]: 80.5%; viability, T/C [23]: 60.1%; viability, T/C [24]: 41.1%; viability, T/C [34]: 23.8%; viability, T/C [28]: 35.3%; viability, T/C [29]: 22.2%; viability, T/C [30]: 10.2%; viability, T/C [35]: 9.73%
